# Experimental data: article PMC8448677, “A novel assay based on pre-equilibrium titration curves for the determination of enzyme inhibitor binding kinetics” (European Biophysics Journal, 2021)
# Starred links: 1 amine or outer side, 2 acyl side, 3 side chain; linkers in the order of their positions; H or OH if unused. Positions of bridges follow the written chain, without caps; N, C: chain ends. Non-standard residues stand in square brackets, D forms with d. Residues, ends and D or L forms follow the SMILES beside them. TBMB = c1c(C[*:1])cc(C[*:3])cc1C[*:2]; NMeR = CN[C@@H](CCCNC(=N)N)C(=O)O; hArg = N=C(N)NCCCC[C@H](N)C(=O)O; Aze = O=C(O)[C@@H]1CCN1; Sar = CNCC(=O)O
# Target: T1, Human PKal (plasma kallikrein) (Homo sapiens, UniProt P03952)
# T1 construct: purchased Molecular Innovations HPKA
# Test: Pre-equilibrium titration curve inhibition assay of plasma kallikrein (fluorogenic substrate H-Pro-Phe-Arg-AMC, global fit with Eq. 7)
# Format: biochemical
# Details: Ki = koff/kon from pre-equilibrium curves, 25 °C, pH 7.5, PKal 1 nM (0.25 nM for 4b), mean ± SD of at least 3 independent measurements, read-out: Ki
# Method: The TBMB-based bicyclic peptide inhibitors of PKal used in this study are listed in Table 1, some of which have been described previously (Teufel et al. [2018]). Experiments were performed at 25 °C in 20 mM Tris–HCl, 150 mM NaCl, 1 mM EDTA, 0.1% PEG-6000, 0.1% Triton X-100, pH 7.5. Human PKal (Molecular Innovations, cat. HPKA, typical nominal concentration 1 nM for all peptides except 0.25 nM for peptide 4b) was pre-incubated in 96-well plates with different concentrations of the tested peptide (typically a serial twofold dilution plus a control with no peptide) in a reaction volume of 90 µL. At different timepoints, the fluorogenic substrate H-Pro-Phe-Arg-AMC (Bachem, cat. I-1295.0050, 10 µL, 20 µM final) was added to the relevant wells, and the increase in fluorescence at 480 nm (with excitation at 360 nm) was recorded using a Spectramax M2e plate reader (Molecular Devices). Initial rates of substrate hydrolysis were obtained by linear fit of the raw fluorescence vs. time traces. In addition, fluorescence was recorded ensuring that no more than 10% of the substrate were hydrolyzed, and for periods of time (typically 30–60 s) short enough to obtain linear traces. The data were plotted as the initial rate of substrate hydrolysis vs. peptide concentration for the different times of incubation prior to substrate addition (as shown in Fig. 3) and analyzed using Eq. 7.
# To compute unique values of kon and koff, data sets such as those of Fig. 3 must be analyzed “globally”, i.e., considering all pre-equilibrium inhibition curves as a unique data set, as allowed by modern nonlinear regression analysis software’s. In this study, we used GraphPad Prism ver. 5.02 (GraphPad Software Inc., La Jolla, CA) applying equal weighting (i.e., performing minimization based on absolute distances squared), and we invite the reader to consult the software’s user’s manual for a detailed description of how global fitting of such data sets can be performed (https://cdn.graphpad.com/faq/2/file/Prism_v5_Regression_Guide.pdf). One point to highlight is that the parameters kon, koff and E0 should be “shared”, to employ the terminology used in GraphPad Prism, i.e., that one unique value of these parameters is used to fit the data. […] As discussed previously for the analysis of data obtained under equilibrium, i.e., using Eq. 1 (see Teufel et al. [2018]), the term E0 in Eq. 7 can be treated as a shared but adjustable parameter or, as here, fixed to its known value. The terms v0, kon and koff, by contrast, always need to be treated as adjustable parameters. Finally, the knowledge of the kinetic parameters kon and koff enables calculation of the equilibrium inhibition constant Ki (Ki = koff/kon).
# In the case of H-Pro-Phe-Arg-AMC, however, the Km for human PKal is large (Teufel et al. [2018]) and experiments were performed under conditions where [S] < < Km. Therefore, the values for kon, koff and Ki reported here can be considered as representing actual values.
# T1 sequence (P03952 391-638 limits assumed): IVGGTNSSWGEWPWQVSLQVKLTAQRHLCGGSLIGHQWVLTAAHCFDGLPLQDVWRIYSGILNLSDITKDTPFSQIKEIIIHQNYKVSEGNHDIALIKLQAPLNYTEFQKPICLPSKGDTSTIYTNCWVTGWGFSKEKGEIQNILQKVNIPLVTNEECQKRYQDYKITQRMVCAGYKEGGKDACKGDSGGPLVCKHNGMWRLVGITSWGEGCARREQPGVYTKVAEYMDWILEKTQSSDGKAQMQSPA
# T1 sequence (P03952 20-390 partner limits assumed): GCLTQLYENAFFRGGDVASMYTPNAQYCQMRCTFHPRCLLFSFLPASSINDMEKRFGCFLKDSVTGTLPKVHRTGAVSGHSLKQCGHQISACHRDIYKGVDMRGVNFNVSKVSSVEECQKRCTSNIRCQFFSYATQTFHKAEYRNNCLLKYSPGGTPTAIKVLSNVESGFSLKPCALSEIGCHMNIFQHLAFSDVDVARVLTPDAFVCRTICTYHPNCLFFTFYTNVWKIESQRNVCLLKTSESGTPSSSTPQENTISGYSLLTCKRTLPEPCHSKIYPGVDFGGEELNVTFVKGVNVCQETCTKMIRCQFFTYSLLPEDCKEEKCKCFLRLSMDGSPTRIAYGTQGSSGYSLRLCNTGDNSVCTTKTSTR
row,SMILES,Ki
1,CC(=O)N[C@H]1CSCc2cc3cc(c2)CSC[C@H](NC(=O)[C@H](CCCNC(=N)N)NC(=O)[C@H](C)NC(=O)[C@@H]2CCCN2C(=O)[C@H](Cc2c[nH]c4ccccc24)NC(=O)[C@H](CO)NC1=O)C(=O)N[C@@H](CC(C)C)C(=O)N[C@@H](Cc1c[nH]cn1)C(=O)N[C@@H](CCC(N)=O)C(=O)N[C@@H](CC(=O)O)C(=O)N[C@@H](CC(C)C)C(=O)N[C@H](C(N)=O)CSC3 [Peptide 2b] (Ac-CSWPARCLHQDLC-NH2; linker 1-7-13 via TBMB),0.1 ± 0.02 nM
2,CC(=O)N[C@H]1CSCc2cc3cc(c2)CSC[C@H](NC(=O)[C@H](Cc2c[nH]c4ccccc24)NC(=O)[C@@H]2CCCN2C(=O)[C@H](CC(N)=O)NC(=O)[C@H](Cc2c[nH]c4ccccc24)NC(=O)[C@H]([C@@H](C)O)NC(=O)[C@H](CC(N)=O)NC1=O)C(=O)N1CCC[C@H]1C(=O)N[C@@H](Cc1c[nH]c2ccccc12)C(=O)N[C@@H](CC(=O)O)C(=O)N[C@@H](C)C(=O)N1CCC[C@H]1C(=O)N[C@@H](CC(C)C)C(=O)N[C@H](C(=O)N[C@@H](C)C(=O)N(C)CC(=O)N(C)CC(=O)N(C)CC(=O)N[C@H](CCCNC(=N)N)C(=O)N[C@H](CCCNC(=N)N)C(N)=O)CSC3 [Peptide 1b] (Ac-CNTWNPWCPWDAPLCA[Sar][Sar][Sar][dR][dR]-NH2; linker 1-8-15 via TBMB),1.8 ± 0.2 nM
3,CC(=O)N[C@H]1CSCc2cc3cc(c2)CSC[C@H](NC(=O)[C@H](CCCCNC(=N)N)NC(=O)[C@H](Cc2ccc(O)cc2)NC(=O)[C@@H]2CCN2C(=O)[C@H](Cc2ccccc2)NC(=O)[C@H](CO)NC1=O)C(=O)N[C@@H](C)CN[C@@H](Cc1c[nH]cn1)C(=O)N[C@@H](CCC(N)=O)C(=O)N[C@@H](CC(=O)O)C(=O)N[C@@H](CC(C)C)C(=O)N[C@H](C(N)=O)CSC3 [Peptide 2d],0.22 ± 0.04 nM
4,CC(=O)N[C@H]1CSCc2cc3cc(c2)CSC[C@H](NC(=O)[C@H](CCCNC(=N)N)NC(=O)[C@H](Cc2ccc(O)cc2)NC(=O)[C@@H]2CCCN2C(=O)[C@H](Cc2ccccc2)NC(=O)[C@H](CO)NC1=O)C(=O)N[C@@H](CC(C)C)C(=O)N[C@@H](Cc1c[nH]cn1)C(=O)N[C@@H](CCC(N)=O)C(=O)N[C@@H](CC(=O)O)C(=O)N[C@@H](CC(C)C)C(=O)N[C@H](C(N)=O)CSC3 [Peptide 2c] (Ac-CSFPYRCLHQDLC-NH2; linker 1-7-13 via TBMB),0.34 ± 0.04 nM

# Further lines, results first:
row,Ki,SMILES
1,0.55 ± 0.06 nM,CC(=O)N[C@H]1CSCc2cc3cc(c2)CSC[C@H](NC(=O)[C@H](CCCNC(=N)N)N(C)C(=O)[C@H](Cc2ccc(O)cc2)NC(=O)[C@@H]2CCN2C(=O)[C@H](Cc2ccccc2)NC(=O)[C@H](CO)NC1=O)C(=O)N[C@@H](CC(C)C)C(=O)N[C@@H](Cc1c[nH]cn1)C(=O)N[C@@H](CCC(N)=O)C(=O)N[C@@H](CC(=O)O)C(=O)N[C@@H](CC(C)C)C(=O)N[C@H](C(N)=O)CSC3 [Peptide 5d] (Ac-CSF[Aze]Y[NMeR]CLHQDLC-NH2; linker 1-7-13 via TBMB)
2,0.53 ± 0.07 nM,CC(=O)N[C@H]1CSCc2cc3cc(c2)CSC[C@H](NC(=O)[C@H](CCCCNC(=N)N)NC(=O)[C@H](Cc2ccc(O)cc2)NC(=O)[C@@H]2CCCN2C(=O)[C@H](Cc2ccccc2)NC(=O)[C@H](CO)NC1=O)C(=O)N[C@@H](CC(C)C)C(=O)N[C@@H](Cc1c[nH]cn1)C(=O)N[C@@H](CCC(N)=O)C(=O)N[C@@H](CC(=O)O)C(=O)N[C@@H](CC(C)C)C(=O)N[C@H](C(N)=O)CSC3 [Peptide 5b] (Ac-CSFPY[hArg]CLHQDLC-NH2; linker 1-7-13 via TBMB)
3,0.061 ± 0.027 nM,CC(=O)N[C@H]1CSCc2cc3cc(c2)CSC[C@H](NC(=O)[C@H](CCCCNC(=N)N)NC(=O)[C@H](Cc2ccc(O)cc2)NC(=O)[C@@H]2CCN2C(=O)[C@H](Cc2ccccc2)NC(=O)[C@H](CO)NC1=O)C(=O)N[C@@H](CC(C)C)C(=O)N[C@@H](Cc1c[nH]cn1)C(=O)N[C@@H](CCC(N)=O)C(=O)N[C@@H](CC(=O)O)C(=O)N[C@@H](CC(C)C)C(=O)N[C@H](C(N)=O)CSC3 [Peptide 5c] (Ac-CSF[Aze]Y[hArg]CLHQDLC-NH2; linker 1-7-13 via TBMB)
4,0.36 ± 0.06 nM,CC(=O)N[C@H]1CSCc2cc3cc(c2)CSC[C@H](NC(=O)[C@H](CCCNC(=N)N)NC(=O)[C@H](Cc2ccc(O)cc2)NC(=O)[C@@H]2CCCN2C(=O)[C@H](Cc2ccccc2)NC(=O)[C@H](CO)NC1=O)C(=O)N[C@@H](CC(C)C)C(=O)N[C@@H](Cc1c[nH]cn1)C(=O)N[C@@H](CCC(N)=O)C(=O)N[C@@H](CC(=O)O)C(=O)N[C@@H](CC(C)C)C(=O)N[C@H](C(N)=O)CSC3 [Peptide 5a] (Ac-CSFPYRCLHQDLC-NH2; linker 1-7-13 via TBMB)

# Same assay, conditions: Ki, Ki = koff/kon from pre-equilibrium curves, 25 °C, pH 7.5, PKal 1 nM (0.25 nM for 4b), mean ± SD of at least 3 independent measurements
row,SMILES,Ki
1,CC[C@H](C)[C@@H]1NC(=O)[C@H](CC(=O)O)NC(=O)[C@@H]2CCCN2C(=O)[C@H](Cc2ccc(O)cc2)NC(=O)[C@H](Cc2ccc(O)cc2)NC(=O)[C@H](C(C)C)NC(=O)[C@@H]2CSCc3cc(cc(c3)CSC[C@@H](C(=O)N[C@@H](C)C(=O)N(C)CC(=O)N(C)CC(=O)N(C)CC(=O)N[C@H](CCCNC(=N)N)C(=O)N[C@H](CCCNC(=N)N)C(N)=O)NC1=O)CSC[C@H](NC(C)=O)C(=O)N[C@@H](CO)C(=O)N[C@@H](Cc1ccccc1)C(=O)N1CC[C@H]1C(=O)N[C@@H](Cc1ccc(O)cc1)C(=O)N[C@@H](CCCCNC(=N)N)C(=O)N2 [Peptide 4b] (Ac-CSF[Aze]Y[hArg]CVYYPDICA[Sar][Sar][Sar][dR][dR]-NH2; linker 1-7-14 via TBMB),0.14 ± 0.02 nM
